Data published in patent EP0551200A1, “Protein phosphatase inhibitors for use in therapy” (priority 1992, dated 1993).

Key:
[1] = system: c-abl; test: Phosphorylation of cdc2 kinase substrate c-abl, immunoprecipitation; format: cell-based, human; details: 50 units/ml TNF or 100 nM OA
Experimental: Where c-abl (top panel) or p53 (bottom panel) phosphorylation was measured, cells were treated for the times indicated with 50 units/ml TNF or 100 nM OA. Where RB (middle panel) phosphorylation was measured, cells were treated for 15 min with the indicated doses of TNF (in units/ml) or OA (in nM). Cell lysates were immunoprecipitated with antibodies to either c-abl, RB, or p53 (from Oncogene Science). The immunoprecipitated proteins were subjected to 6 or 10% SDS-PAGE and autoradiography. Note that in the middle panel, the lesser extent of RB phosphorylation observed with 500 nM OA as compared to 100 nM OA is due to the loading of about four times less amount of protein in the 500 nM OA than the 100 nM OA-treated sample to the gel. At either concentration of OA, the ratio of the hyperphosphorylated form of RB is higher than the hypophosphorylated form of RB.
Phosphorylation of cdc2 Kinase Substrates in Cells Treated with IL-1, TNF, or Okadaic Acid - It is noted from Fig. 1 (e and f) that the phosphorylation of myosin light chain and nucleolin are enhanced by TNF and okadaic acid treatment. Both proteins are known to be substrates of cdc2 kinase. In this connection, a question was raised as to whether other cdc2 kinase substrates which are known to be phosphorylated by okadaic acid treatment are also effected in TNF-treated human fibroblasts. […]

[2] = system: Egr-1 mRNA; test: Nuclear run-on analysis of transcription in Balb/c 3T3 cells; format: cell-based, mouse; details: 0.5 µM
Experimental: Nuclei were isolated from quiescent (0 h) and okadaic acid-treated (0.5 µM) Balb/c 3T3 cells under conditions described in the "Experimental Procedures" of Example 2. Nylon matrix containing the indicated plasmids were hybridized with the in vitro transcribed RNA and then autoradiographed. Control cells were also treated with DMEM containing […] of DMSO and RNA from these cells were also transcribed and hybridized to the various plasmids indicated.
Cell Cultures and Reagents. Human diploid foreskin fibroblasts were a gift from Dr J Vilcek (New York University, New York). The cells were grown in MEM supplemented with 10% fetal bovine serum (Hyclone, Logan, UT, US), Mouse Balb/c 3T3 cells were purchased from the American Type Culture Collection and grown in Dulbecco's MEM (DMEM) supplemented with 10% fetal bovine serum. Okadaic acid, calyculin A, H7, and HA1004 were purchased from Biomol Research Laboratories (Plymouth Meeting, PA, US). TPA, puromycin and dBt-cAMP were purchased from Sigma (St Louis, MO, US) 1 mM stock solutions of okadaic acid or calyculin A were solubilized in DMSO. [³²P]orthophosphate and other radioactive chemicals were purchased from Du Pont-New England Nuclear (Boston, MA). Preparation of RNA and Northern Analysis. Balb/c 3T3 cells were grown to near confluency in DMEM supplemented with 10% fetal calf serum. The cells were then maintained in DMEM without serum for 48 h followed by treatment with the indicated agonists for the times indicated. Similarly human fibroblasts were maintained in MEM supplemented with 10% fetal bovine serum. Nearly confluent human fibroblasts were maintained for 2 days in MEM supplemented with 0.25% fetal bovine serum before treatment with agonists. The cells were harvested and total cytoplasmic RNA was isolated and subjected to Northern analysis as previously described (Chomczynski et al, Anal. Biochem. 162, 156-159, 1987). The blots were autoradiographed and quantitated with the aid of the Visage 2000 Image System (BioImage Products, Ann Arbor, MI, US). Nuclear Run-on Analysis of Transcription. […]

Compound: C=C1[C@@H](O)[C@@H]2O[C@]3(CC[C@H](/C=C/[C@@H](C)[C@@H]4CC(C)=C[C@@]5(O[C@H](C[C@@](C)(O)C(=O)O)CC[C@H]5O)O4)O3)CC[C@H]2O[C@@H]1[C@@H](O)C[C@H](C)[C@H]1O[C@@]2(CCCCO2)CC[C@H]1C [okadaic acid]
- phosphorylation of c-abl (in words) [1]: enhanced the phosphorylation
- time at which a trace of newly transcribed Egr-1 mRNA was detectable [2]: 0.5 h
- time by which significant amounts of Egr-1 mRNA were transcribed [2]: ≤ 1 h
- time of maximum transcription of Egr-1 mRNA [2]: 4 h
